Columns and labels:
[1] = Rat single-dose toxicokinetic study; type: in vivo, Sprague Dawley rats; settings: IV bolus; for Tmax / half-life: plasma
Procedure: Pre-IND PD and toxicokinetic (TK) studies (FIG. 4D) were enabled by scalable Rebecsinib synthesis^34 and development of an optimized formulation for in vivo biodistribution (5% w/v EtOH, 5% w/v Kolliphor HS15 in 0.9% Sodium Chloride). In PK studies, Rebecsinib was detectable in rat, rabbit, and non-human primate (NHP) plasma following IV bolus administration. In rat TK studies, Rebecsinib was quantifiable up to 1-hour post-dose at 1 mg/kg and up to 4 hours post-dose at 3, 5, and 8 mg/kg (FIG. 4E). […] Rebecsinib T1/2 values were 0.342, 0.447, 0.313, and 0.530 hours at 1, 3, 5, and 8 mg/kg, respectively. […] Following 3, 10, and 20 mg/kg boluses, Rebecsinib was quantifiable in plasma 1 hour post-dose and could be detected up to 8 hours post-dosing with 40 mg/kg (FIG. 4F). […] Following 3, 10, 15, and 20 mg/kg of Rebecsinib, quantifiable plasma concentrations of Rebecsinib were observed through 8 hrs post-dose (FIG. 4G).
(FIG. 29D) Schematic diagram outlining multispecies toxicokinetic (TK) and pharmacodynamic studies in mammalian species treated in vivo with a single dose of Rebecsinib. Toxicokinetic analyses were performed in rats (n=6 per sex, per group), rabbits (n=2 per sex, per group), and non-human primates (NHPs, n=1 per sex, per group) and pharmacodynamic splice isoform quantification studies were performed in peripheral blood mononuclear cells (PBMCs) from NHP.
(FIG. 29E, FIG. 29F) For toxicokinetic analyses, rats (FIG. 29E) and rabbits (FIG. 29F) were given a single injection of Rebecsinib at 1-40 mg/kg, or vehicle control, and blood samples were drawn at regular intervals to determine plasma concentrations of the compound over 8 hr after treatment.
Single-dose TK studies were performed in Sprague Dawley rats (Charles River Labs, South San Francisco, CA), New Zealand white rabbits (BASi/Inotiv, West Lafayette, IN), and cynomolgus monkeys (BASi/Inotiv). Rat and rabbit studies included toxicology analyses, quantification of plasma levels of Rebecsinib, and necropsies to evaluate organ integrity after treatment. For NHP studies, health and ophthalmological evaluations were performed before and after dosing with Rebecsinib, and blood samples were collected for quantification of plasma levels of Rebecsinib and biomarker studies in PBMCs from treated and control animals. All monkeys were returned to the animal colony after the end of the observation period. Toxicokinetic values including mean plasma concentrations and t1/2 values were calculated according to CRO-approved protocols (Charles River and BASi).

[2] = tested on: human CD34+ cells; assay: Aged normal bone marrow CD34+ engrafted NSG-SGM3 mice, flow cytometry of PB, SP, BM; type: in vivo, human cells in NSG-SGM3 mice; settings: 10 mg/kg, intravenously, twice a week for 2 weeks
Source text: Here, we established humanized mouse models using CD34^+ stem cells isolated from the peripheral blood of adult secondary AML (sAML) patients or bone marrow of normal-aged donors (63-79 years old).
FIG. 1: Rebecsinib treatment promotes human CD34^+ cells and spares CD45^+ cells Aged normal bone marrow (BM) samples were provided by Scripps Clinic La Jolla, CA. Normal human CD34^+ cells were freshly isolated with Microbeads (Miltenyi Biotech) and subsequently transduced with the ADAR1-NanoLuc reporter for 48 hours. Adult NSG-SGM3 mice (4-6 weeks) were intravenously transplanted with 100K ADAR1-NanoLuc reporter transduced CD34^+ cells. The mice were screened using the IVIS 200 imaging system and staining of peripheral blood with human CD45 monoclonal antibody. Mice with human CD45^+ cells >1% were included in the treatment cohort receiving Rebecsinib at a dose of 10 mg/kg, intravenously, twice a week for 2 weeks, with a total of 5 doses. After treatment, mice were sacrificed, and single cells were obtained from peripheral blood (PB), bone marrow (BM), and spleen (SP) for further analysis. A. IVIS 200 images of NSG-SGM3 mice intravenously transplanted with ADAR1-NanoLuc reporter transduced normal human CD34^+ cells at 18 weeks after transplantation. B. Flow cytometry gating strategies showing positive and negative controls. C.

CC[C@H](OC)[C@@H](C)[C@H]1O[C@@H]1[C@@H](O)[C@H](C)/C=C/C=C(\C)[C@H]1OC(=O)C[C@H](O)CC[C@@](C)(O)[C@@H](OC(C)=O)/C=C/[C@@H]1C [Rebecsinib]
last time quantifiable in plasma ([1]; 1 mg/kg): up to 1 hour
last time quantifiable in plasma ([1]; 3 mg/kg): up to 4 hours
last time quantifiable in plasma ([1]; 5 mg/kg): up to 4 hours
last time quantifiable in plasma ([1]; 8 mg/kg): up to 4 hours
Tmax ([1]; 1 mg/kg): ≤ 4.98 min
half-life ([1]; 1 mg/kg): 20.5 min
Tmax ([1]; 3 mg/kg): ≤ 10 min
half-life ([1]; 3 mg/kg): 26.8 min
Tmax ([1]; 5 mg/kg): ≤ 4.98 min
half-life ([1]; 5 mg/kg): 18.8 min
Tmax ([1]; 8 mg/kg): ≤ 10 min
half-life ([1]; 8 mg/kg): 31.8 min
human CD45+ cells and differentiated cells (CD14+, CD3+, CD19+) [2]: preserves human CD45^+ cells and differentiated cells, including CD14^+ myeloid cells, and lymphoid cells such as CD3^+ T and CD19^+ B cells
human CD34+ cells in BM ([2]; bone marrow, p=0.046, Student's t-test): significant CD34^+ increase
human CD34+ cells in PB ([2]; peripheral blood): increased levels of human CD34^+ cells
human CD34+ cells in SP ([2]; spleen): increased levels of human CD34^+ cells
